Experimental data reported in patent US6949528B1, “Compositions containing lysophosphatidic acids which inhibit apoptosis and uses thereof” (priority 1998, dated 2005).

Key:
Format in all cases: cell-based
[1] = test system: C3H/10T1/2 cells; assay: Anti-apoptotic activity assay: serum deprivation of C3H/10T1/2 cells; conditions: for Maximum effect relative to 18:1 LPA: Toxic / lowest concentration at which cytotoxic effects were observed (column Concentration for Max Effect): C3H/10T1/2 cells; for lowest concentration at which cytotoxic effects were observed (column Concentration for Max Effect): compounds exhibiting toxicity; for Concentration for Max Effect / Maximum effect relative to 18:1 LPA / Emax: serum-deprived C3H/10T1/2 cells, 24 hours of treatment; for Emax: Mus musculus, read-out: Maximum effect relative to 18:1 LPA
Text: In order to determine the […] of the claimed invention, the following method of analysis was used. The cell assay is described in detail in U.S. Pat. Nos. 5,637,486, 5,620,888, and 5,681,703, and Tomei et al. (1993) Proc Natl. Aci. 90:853-857. Briefly, mouse fibroblast C3H/10T1/2 cells (clone 8) were obtained from ATCC (Rockville, Md.) and were maintained in exponential growth phase in which the cell cycle is randomly distributed and no cells are arrested in G0, and in quiescence. Exponential growth phase was assured by seeding at 2000 cells per 1 ml (5 ml for 60 mm culture plate) five days prior to the beginning of the experiment. Assays were performed on cells only up to passage 15. At T=0, cultures were transferred to serum-free medium, as an appropriate stimulus, and seed extracts were added. Controls included 10^−7 and 5×10^−8 M 12-O-tetradecanoyl phorbol-13-acetate (TPA) to ensure the responsiveness of the cell culture. The samples were added to serum free medium and sterile filtered prior to addition to the cultures. Assays were performed in triplicate or quadruplicate. Analyses of the cell responses were made between 18 and 28 hours of serum deprivation. Two assays were performed on each cell culture plate consisting of differential cell counts.
1. All non-adherent or loosely adherent cells were removed from the culture dish and counted by appropriate techniques, typically counting by electronic particle counting instrument. These are the apoptotic cells, the serum deprived released cells (SDR), released by the action of cultivation in serum-free medium. Approximately 95% of these released cells are apoptotic as shown by both ultrastructure analysis and DNA fragmentation analysis.
2. The remaining adherent cells (ADH) were exposed to a buffered, typically pH 7.3, balanced salt solution such as a Hanks Balanced Salt Solution without calcium and magnesium salts containing 0.05% trypsin and 0.53 mM ethylene diaminetetraacetic acid (EDTA). Each culture was incubated at either room temperature or 37(C on a rocking platform to ensure uniform distribution of the trypsin reagent over the culture surface. After a standardized period of time, typically 10 minutes, the released cells were removed from each culture dish and measured by the same means as described above, typically electronic particle counting. This ADH cell count is comprised of both trypsin resistant and trypsin sensitive cells as described in U.S. Pat. Nos. 5,637,486, 5,620,888, and 5,681,703.
Anti-apoptotic activity is expressed in the following examples as the calculated concentration of material ((g/ml of media) required to save 50% of the cells released on serum free treatment.
The ability of 18:1-LPA an other LPAs to protect serum-starved cells from apoptotic death was measured using the C3H/10T1/2 cell assay, performed as described in Example 2. The effect of various compounds on the ability of lysophosphatidic acid to protect serum-starved cells from apoptotic death was also measured. Log phase cells were seeded in 60 mm Petri dishes at 175-350 cells per cm2 and maintained in Basal Medium Eagle (BME) supplemented with 10% Heat Inactivated Fetal Bovine Serum (HIFBS). On day 3 the cells were given fresh media. Treatment began on day 5 when the media containing serum was removed and replaced with the LPA mixture to be tested. After 24 hours of treatment, day 6, serum deprived released (SDR) cells (the […] cell population) and adherent (ADH) cells were separated and counted using an electronic cell counter (Coulter Corporation, Hialea, Fla.). […]

[2] = test system: rat neonatal cardiomyocytes; assay: Cardiomyocyte death induced by serum/glucose deprivation; conditions: serum/glucose deprivation
Description: Cardiomyocytes were prepared from hearts of day-old Sprague Dawley rats by trypsinization and mechanical disaggregation (Simpson, (1985)) Circ. Res. 56:884-894. The cells were resuspended in MEM, 1×MEM vitamins (Gibco), 5% fetal bovine serum and 50 U/ml penicillin-G and pre-plated for 30 minutes to reduce contamination of non-myocytes. The non-adherent cardiac myocytes were separated and seeded in 2 ml in 35 mm dishes at a density of 3.5×10^5 viable cells per ml. The cells were allowed to adhere for 16-24 hours in a 37° C./5% CO2 humidified incubator.
For serum deprivation, the medium was replaced with fresh serum-free RPMI, whereas serum/glucose deprivation was performed using glucose-free RPMI. The induction of cell death by adriamycin or C2-ceramide was accomplished by the addition of the agent prepared in serum-free RPMI. As a model of ischemia, cultures in serum and glucose free RPMI were placed in an airtight chamber and the latter was continuously perfused with oxygen-free gas overlay of 95% N2/5% CO2 for 8 hours at 37° C. To model reperfusion of the ischemic cells, 10% fetal bovine serum, 2 g/L of glucose were added and the cultures were returned to a normal oxygen gas overlay (37° C./5% CO2) in a humidified incubator for 16 hours.
T investigate effects of LPA, LPA plus other phospholipids, PEG or their mixtures on cell death, various combinations of these components were added to cells in serum free medium at the beginning of cytotoxic treatment.
Because cardiomyocytes are terminally differentiated non-dividing cells, viability was determined by measurement of the decrease in the relative number of adherent cells. […] Adherent cardiomyocytes were collected from culture dishes using 0.25% Trypsin/0.05% EDTA and counted on Coulter Counter ZM and Coulter Channelyzer 256.

[3] = test system: C3H/10T1/2 cells; assay: Effect of proteins on anti-apoptotic activity of soy LPA, C3H/10T1/2 cell assay; conditions: for Protein +10 (g/mL Soy LPA, percent cells saved from apoptosis): 1:10 soy-LPA to protein (weight:weight); for Protein +10 (g/mL Soy LPA, percent cells saved from apoptosis) / Protein Alone (0.01%), percent cells saved from apoptosis: 24 hours serum deprivation; for Increase with LPA: difference protein + soy LPA minus protein alone; for Protein Alone (0.01%), percent cells saved from apoptosis: protein without LPA; for enhancement of the anti-apoptotic activity of soy-LPA (more than additive protection): soy-LPA added together with protein
Description: Soy derived LPA (soy-LPA) (Avanti® Polar Lipids, Inc., Alabaster, Ala.) was stored in an organic solution and was dried immediately prior to assay using a Speed Vac (Savant Instruments, Hicksville, N.Y.). Tested proteins were resuspended at 10_mg/mL in a bicarbonate buffered saline/EDTA solution (50_mM NH4HCO3, […] NaCl, 250_(M EDTA) prior to being added to dried soy-LPA at a 1:10_soy-LPA to protein (weight:weight) ratio. The mixture was then sonicated for 5 minutes using a high power 80 Watt sonication bath (Laboratory Supplies Co., Hicksville, N.Y.). Following sonication, concentrated LPA/protein mixtures were left standing for 15 minutes at room temperature prior to dilution in cell culture assay media.
The effect of various proteins on the ability of LPA to protect serum-starved cells from apoptotic death was measured using the C3H/10T1/2 cell assay, performed as described in Example 2, above. Log phase cells were seeded in 60 mm Petri dishes at 175-350 cells per cm^2 and maintained in Basal Medium Eagle (BME) supplemented with 10% fetal calf serum (Hyclone, Logan, Utah). At time zero, serum containing media was replaced with sterile filtered BME containing the LPA/protein mixture to be tested. After 24 hours of treatment, serum deprived release (SDR) cells (the apoptotic cell population) and adherent (ADH) cells were separated and counted using an electronic cell counter (Coulter Corporation, Hialea, Fla.). SDR cells were counted with the lower threshold setting at 6.3_(m and were defined as the apoptotic cells dying in response to cultivation in serum-free-media. Approximately 95% of the SDR cells are confirmed to be apoptotic as previously shown by size, ultrastructure and DNA fragmentation analysis. Adherent cells were removed by treatment with a Hanks' balanced salt solution containing 0.05% trypsin and 0.53_mM EDTA and were counted with the lower threshold setting at 11.01_(m. All samples were tested in triplicate and serum-deprived controls (BME only) were assayed at both the beginning and end of each experiment.

`CCCCCCCCCCCCCCOCC(O)COP(=O)(OC)OC` (racemic) [Compound 3, Dimethyl 3-O-tetradecyl-rac-glycero-1-phosphate] was tested, and the “Maximum effect relative to 18:1 LPA: Toxic” value [1] was “Toxic” and the “lowest concentration at which cytotoxic effects were observed (column Concentration for Max Effect)” value (“lowest concentration” for short) [1] was 30 µM.

`CCCCCCCCCCOCC(O)COP(=O)(O)O` (racemic) [Compound 11, 3-O-Decyl-rac-glycero-1-phosphate] was tested, and the Emax ([2]; Rattus norvegicus, Cardiomyocyte, read-out: Maximum effect relative to 18:1 LPA in cardiomyocytes) was 100% and the “Concentration ranges for cardiomyocyte protection” value [2] was 1 to 10 µM.

For `CCCCCCCC/C=C\CCCCCCCCOCC(COP(=O)(OC)OC)OC` (racemic) [Compound 23, Dimethyl 1-O-oleyl-2-O-methyl-rac-glycero-1-phosphate], the “Concentration for Max Effect” value [1] was 30 µM and the “Maximum effect relative to 18:1 LPA” value [1] was 17%.

In the case of `CCCCCCCC/C=C\CCCCCCCCOCC(COP(=O)(O)O)OC` (racemic) [Compound 24, 3-O-Oleyl-2-O-methyl-rac-glycero-1-phosphate], the Emax [1] is reported as 100% and the “Concentration for Max Effect” value [1] is reported as 10 µM.

With `CCCCCCCC/C=C\CCCCCCCC(=O)OCC(Br)COP(=O)(O)O` (racemic) [Compound 37, 3-O-Oleoyl-2-deoxy-2-bromo-rac-glycero-1-phosphate] the “Concentration for Max Effect” value [1] was 30 µM and the “Maximum effect relative to 18:1 LPA” value [1] was 75%.

For `CCCCCCCC/C=C\CCCCCCCC(=O)OCC(COP(=O)(O)O)OC` (racemic) [Compound 46, 3-O-Oleoyl-2-O-methyl-rac-glycero-1-phosphate], the Emax [1] was 75% and the “Concentration for Max Effect” value [1] was 30 µM.

`CCCCCCCC/C=C\CCCCCCCCOCC(COP(O)(=S)OCC(COCCCCCCCC/C=C\CCCCCCCC)OC)OC` (racemic) [Compound 80, Bis(3-O-oleyl-2-O-methyl-rac-glyceryl)thiophosphate] was tested, and the “Concentration for Max Effect” value [1] was 3 µM and the “Maximum effect relative to 18:1 LPA” value [1] was 100%.

With `CCCCCCCCCC(=O)OC[C@@H](O)COP(=O)(O)O` [10:0 LPA, reference compound] the “Concentration for Max Effect” value [1] was 30 µM and the “Maximum effect relative to 18:1 LPA” value [1] was 30%.

In the case of `CCCCCCCCCCCCCC(=O)OC[C@@H](O)COP(=O)(O)O` [14:0 LPA, reference compound], the “Concentration for Max Effect” value [1] is reported as 30 µM and the “Maximum effect relative to 18:1 LPA” value [1] is reported as 80%.

For `CCCCCCCCCCCCCCCC(=O)OCC(O)COP(=O)(O)O` (stereo not shown) [16:0 LPA, Palmitoyl-LPA, reference compound], the cells protected ([1]; 5 (M, FIG. 5), medium alone 30%) was “about 42%”, the cells protected ([1]; 15 (M, FIG. 5)) was 63% and the “Concentration for Max Effect” value [1] was 10 µM. The “Maximum effect relative to 18:1 LPA” value [1] was 80%.

`CCCCCCCCCCCCCCOCC1CO1` (stereo not shown) [Compound 8, 1-O-Tetradecyl-glycidol] was tested, and the “Maximum effect relative to 18:1 LPA: Toxic” value [1] was “Toxic” and the “lowest concentration” value [1] was 30 µM.

In the case of `CCCCCCCC/C=C\CCCCCCCC(=O)NCCOP(=O)(OC)OC` [Compound 59, Dimethyl 2-amino-2-N-oleoyl-ethylphopshate], the “Maximum effect relative to 18:1 LPA: Toxic” value [1] is reported as “Toxic” and the “lowest concentration” value [1] is reported as 30 µM.

With `CCCCCCCC/C=C\CCCCCCCC(=O)NC(C)COP(=O)(O)O` (stereo not shown) [Compound 61, 2-Amino-2-N-oleoyl-propyl phosphate] the “Concentration for Max Effect” value [1] was 30 µM and the “Maximum effect relative to 18:1 LPA” value [1] was 70%.

`CCCCCCCC/C=C\CCCCCCCCCCCCOP(=O)(O)O` [Compound 71, Erucyl phosphate] was tested, and the “Concentration for Max Effect” value [1] was 100 µM and the “Maximum effect relative to 18:1 LPA” value [1] was 76%.

For `CCCCCCCCCCCCCCCCCC(=O)OCC(O)COP(=O)(O)O` (stereo not shown) [stearyl-LPA, reference compound], the cells protected ([1]; 5 (M, FIG. 6)) was 63% and the cells protected ([1]; 15 (M, FIG. 6)) was 65%.

In the case of Casein, the “Protein +10 (g/mL Soy LPA, percent cells saved from apoptosis)” value [3] is reported as 84.3%, the “Increase with LPA” value [3] is reported as “+20.9%” and the “Protein Alone (0.01%), percent cells saved from apoptosis” value [3] is reported as 63.4%. For the same molecule, the “enhancement of the anti-apoptotic activity of soy-LPA (more than additive protection)” value (shortened to “enhancement”) [3] was “to a lesser degree”.

With “Dimethyl 3-amino-N-oleoyl-propylphosphate [Compound 53]” the “Maximum effect relative to 18:1 LPA: Toxic” value [1] was “Toxic” and the “lowest concentration” value [1] was 100 µM.

With Myelin Basic Protein the “Protein +10 (g/mL Soy LPA, percent cells saved from apoptosis)” value [3] was 17.0%, the “Increase with LPA” value [3] was “+0.2%” and the “Protein Alone (0.01%), percent cells saved from apoptosis” value [3] was 16.8%. For the same molecule, the “enhancement” value [3] was “did not enhance”.

“Phosphatidylserine [Phosphatidylserine (PS)]” was tested, and the “toxicity of lipid alone” value ([1]; PS alone, FIG. 2) was “slightly toxic”.

With “lysophosphatidyl serine [LPS, reference compound]” the “activity relative to 18:1-LPA” value ([1]; on a molar basis, FIG. 4) was “approximately 50%”.

With phosphatidyl choline [PC] the cells survived ([1]; lipids alone added to culture medium, FIG. 3) was “about 25%”.

B1: Myoglobin: myoglobin from horse heart (protein, UniProt P68082 2-154, looked up)
Myoglobin: GLSDGEWQQVLNVWGKVEADIAGHGQEVLIRLFTGHPETLEKFDKFKHLKTEAEMKASEDLKKHGTVVLTALGGILKKKGHHEAELKPLAQSHATKHKIPIKYLEFISDAIIHVLHSKHPGDFGADAQGAMTKALELFRNDIAAKYKELGFQG
With B1 the “Protein +10 (g/mL Soy LPA, percent cells saved from apoptosis)” value [3] was 27.8%, the “Increase with LPA” value [3] was “+18.5%” and the “Protein Alone (0.01%), percent cells saved from apoptosis” value [3] was 9.3%. The “enhancement” value [3] was “to a lesser degree”.
